According to patent US11149037B2, “Pyrazole MAGL inhibitors” (H. Lundbeck A/S, priority 2017, dated 2021):

What was measured:
Type in all cases: biochemical
FAAH [1] = target: FAAH (Homo sapiens (Human), UniProt O00519); assay: In vitro competitive activity-based protein profiling, human proteomes (prefrontal cortex or PC3 cell membrane fractions); conditions: human proteome; for inhibition at 1 µM: read-out: FAAH % inh. 1 μM (human)
Procedure, shortened: (§1)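 Activity of MAGL and FAAH was quantified from fluorescent gel band intensities. Beforehand, inhibitors at several concentrations competed against subsequent probe labelling (FP-Rh, JW912 or HT-01) in species-matched proteomes, each step 30 min at 37° C.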

MAGL [2] = target: MAGL (Homo sapiens (Human), UniProt Q99685); assay: as above; conditions: human proteome; for inhibition at 1 µM: read-out: MAGL % inh. 1 μM (human); for inhibition at 10 µM: read-out: MAGL % inh. (human) @ 10 μM; for inhibition at 50 µM: read-out: MAGL % inh. (human) @ 50 μM
Procedure, shortened: as §1

MAGL [3] = target: MAGL (Mus musculus (Mouse), UniProt O35678); assay: In vitro competitive activity-based protein profiling, mouse proteomes (brain membrane fraction or cell lysates); conditions: mouse proteome, read-out: MAGL % inh. 1 μM (mouse)
Procedure, shortened: as §1

FAAH [4] = target: FAAH (Mus musculus (Mouse), UniProt O08914); assay: as above; conditions: mouse proteome, read-out: FAAH % inh. 1 μM (mouse)
Procedure, shortened: as §1

MAGL (Mus musculus (Mouse), UniProt O35678), sequence (O35678 whole entry): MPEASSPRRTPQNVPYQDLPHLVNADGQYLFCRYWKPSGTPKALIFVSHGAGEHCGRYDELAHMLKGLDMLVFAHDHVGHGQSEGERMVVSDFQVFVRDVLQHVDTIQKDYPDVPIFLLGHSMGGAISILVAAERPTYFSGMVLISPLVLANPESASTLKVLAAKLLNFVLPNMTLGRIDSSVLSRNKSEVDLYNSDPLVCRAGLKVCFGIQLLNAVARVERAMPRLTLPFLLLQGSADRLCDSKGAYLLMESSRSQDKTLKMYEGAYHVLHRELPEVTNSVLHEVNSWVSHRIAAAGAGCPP
FAAH (Homo sapiens (Human), UniProt O00519), sequence (O00519 whole entry): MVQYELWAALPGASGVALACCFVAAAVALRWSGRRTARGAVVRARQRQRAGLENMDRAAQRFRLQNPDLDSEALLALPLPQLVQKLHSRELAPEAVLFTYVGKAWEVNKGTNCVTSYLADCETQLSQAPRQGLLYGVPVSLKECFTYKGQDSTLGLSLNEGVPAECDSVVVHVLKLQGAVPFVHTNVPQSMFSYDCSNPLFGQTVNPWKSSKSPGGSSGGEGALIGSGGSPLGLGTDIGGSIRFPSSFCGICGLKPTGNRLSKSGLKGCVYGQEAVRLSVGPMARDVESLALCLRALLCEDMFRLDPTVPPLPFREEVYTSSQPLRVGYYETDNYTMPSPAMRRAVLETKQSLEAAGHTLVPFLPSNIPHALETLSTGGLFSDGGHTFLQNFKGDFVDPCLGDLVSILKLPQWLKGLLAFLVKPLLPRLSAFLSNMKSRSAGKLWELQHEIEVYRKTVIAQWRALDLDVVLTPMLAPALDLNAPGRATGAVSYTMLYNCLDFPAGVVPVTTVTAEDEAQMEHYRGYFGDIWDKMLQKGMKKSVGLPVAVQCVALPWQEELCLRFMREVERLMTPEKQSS
FAAH (Mus musculus (Mouse), UniProt O08914), sequence (O08914 whole entry): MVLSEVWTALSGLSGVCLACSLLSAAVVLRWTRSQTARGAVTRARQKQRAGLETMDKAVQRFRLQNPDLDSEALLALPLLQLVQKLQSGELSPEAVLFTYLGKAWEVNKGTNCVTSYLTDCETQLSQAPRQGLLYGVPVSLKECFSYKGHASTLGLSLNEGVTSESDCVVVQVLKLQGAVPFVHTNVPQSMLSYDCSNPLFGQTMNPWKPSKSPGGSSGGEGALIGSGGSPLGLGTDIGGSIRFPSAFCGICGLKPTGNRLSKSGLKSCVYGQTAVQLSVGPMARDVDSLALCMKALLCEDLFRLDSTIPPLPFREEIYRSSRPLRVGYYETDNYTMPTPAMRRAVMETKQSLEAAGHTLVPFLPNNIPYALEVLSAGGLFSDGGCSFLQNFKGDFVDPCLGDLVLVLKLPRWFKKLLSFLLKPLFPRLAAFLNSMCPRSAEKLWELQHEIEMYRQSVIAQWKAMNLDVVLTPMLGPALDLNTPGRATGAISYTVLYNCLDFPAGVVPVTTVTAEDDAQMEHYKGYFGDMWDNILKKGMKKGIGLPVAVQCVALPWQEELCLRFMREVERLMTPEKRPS
MAGL (Homo sapiens (Human), UniProt Q99685), sequence (Q99685 whole entry): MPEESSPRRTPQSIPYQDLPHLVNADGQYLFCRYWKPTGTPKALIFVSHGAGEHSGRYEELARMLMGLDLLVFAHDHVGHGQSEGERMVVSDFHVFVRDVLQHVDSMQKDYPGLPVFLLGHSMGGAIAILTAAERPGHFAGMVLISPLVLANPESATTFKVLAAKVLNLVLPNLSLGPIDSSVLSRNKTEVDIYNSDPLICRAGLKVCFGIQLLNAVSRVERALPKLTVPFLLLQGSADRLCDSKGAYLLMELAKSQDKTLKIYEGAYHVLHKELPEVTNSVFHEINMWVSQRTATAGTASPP

inhibition at 1 µM (FAAH [1]) [%]	IC50 (FAAH [1]) [µM]	inhibition at 1 µM (MAGL [2]) [%]	IC50 (MAGL [2]) [µM]	inhibition at 1 µM (MAGL [3]) [%]	inhibition at 1 µM (FAAH [4]) [%]	inhibition at 10 µM (MAGL [2]) [%]	inhibition at 50 µM (MAGL [2]) [%]	SMILES
0 to 25	1 to 10	> 75	< 0.1	> 75	0 to 25	–	–	CC(=O)Nc1ccn(C(=O)N2CCC3(CCN(Cc4cc(C(F)(F)F)cc(C5(C(=O)O)CCCC5)c4)C3)CC2)n1 [Example 25, 1-(3-((8-(3-Acetamido-1H-pyrazole-1-carbonyl)-2,8-diazaspiro[4.5]decan-2-yl)methyl)-5-(trifluoromethyl)phenyl)cyclopentane-1-carboxylic acid]
0 to 25	–	> 75	–	0 to 25	0 to 25	–	–	CN(Cc1ccc(Cl)c(N2CC3COCC3C2)c1)C1(C)CCN(C(=O)n2ccc(NS(C)(=O)=O)n2)CC1 (stereo not shown) [Example 26, N-(1-(4-((4-Chloro-3-(tetrahydro-1H-furo[3,4-c]pyrrol-5(3H)-yl)benzyl)(methyl)amino)-4-methylpiperidine-1-carbonyl)-1H-pyrazol-3-yl)methanesulfonamide]
> 75	–	> 75	–	> 75	> 75	–	–	CS(=O)(=O)Nc1ccn(C(=O)N2C[C@H]3C[C@H](OCc4cccc(C(F)(F)F)c4)C[C@H]3C2)n1 [Example 28, N-(1-((3aR,5s,6aS)-5-((3-(trifluoromethyl)benzyl)oxy)octahydrocyclopenta[c]pyrrole-2-carbonyl)-1H-pyrazol-3-yl)methanesulfonamide]
0 to 25	–	–	–	0 to 25	0 to 25	50 to 75	–	CC1(N(CC(=O)O)Cc2ccc(C(F)(F)F)cc2N2CCCC2)CCN(C(=O)n2ccc(NS(C)(=O)=O)n2)CC1 [Example 29, N-(4-methyl-1-(3-(methylsulfonamido)-1H-pyrazole-1-carbonyl)piperidin-4-yl)-N-(2-(pyrrolidin-1-yl)-4-(trifluoromethyl)benzyl)glycine]
0 to 25	–	> 75	–	> 75	0 to 25	–	–	C[C@H]1CN(C(=O)n2ccc(NS(C)(=O)=O)n2)CCN1Cc1cnc(Cl)c(N2CCC(F)CC2)c1 [Example 31, (S)—N-(1-(4-((6-chloro-5-(4-fluoropiperidin-1-yl)pyridin-3-yl)methyl)-3-methylpiperazine-1-carbonyl)-1H-pyrazol-3-yl)methanesulfonamide]
> 75	0.1 to 1	> 75	< 0.1	> 75	> 75	–	–	CC(C)(O)COc1cccc(CN2CCN(C(=O)n3ccc(NS(C)(=O)=O)n3)CC2)c1Cl [Example 34, N-(1-(4-(2-Chloro-3-(2-hydroxy-2-methylpropoxy)benzyl)piperazine-1-carbonyl)-1H-pyrazol-3-yl)methanesulfonamide]
0 to 25	–	> 75	–	> 75	0 to 25	–	–	CS(=O)(=O)Nc1ccn(C(=O)N2CCC(N(Cc3ccc(C(F)(F)F)cc3N3CCCC3)C3CC3)CC2)n1 [Example 35, N-(1-(4-(cyclopropyl(2-(pyrrolidin-1-yl)-4-(trifluoromethyl)benzyl)amino)piperidine-1-carbonyl)-1H-pyrazol-3-yl)methanesulfonamide]
–	1 to 10	–	< 0.1	> 75	25 to 50	–	–	CC(=O)Nc1ccn(C(=O)N2CCC3(CCCN3Cc3cc4cc(Cl)ccc4[nH]3)CC2)n1 [Example 38, N-(1-(1-((5-Chloro-1H-indol-2-yl)methyl)-1,8-diazaspiro[4.5]decane-8-carbonyl)-1H-pyrazol-3-yl)acetamide]
50 to 75	–	25 to 50	–	25 to 50	> 75	–	–	CS(=O)(=O)Nc1ccn(C(=O)N2CC3CN(Cc4ccc(Oc5ccc(Cl)cc5)cc4)CC3C2)n1 (stereo not shown) [Example 40, N-(1-(5-(4-(4-Chlorophenoxy)benzyl)octahydropyrrolo[3,4-c]pyrrole-2-carbonyl)-1H-pyrazol-3-yl)methanesulfonamide]
0 to 25	1 to 10	> 75	< 0.1	> 75	0 to 25	–	–	CC(=O)Nc1ccn(C(=O)N2CCC3(CCCN3Cc3cc4cc(Cl)c(Cl)cc4[nH]3)CC2)n1 [Example 43, N-(1-(1-((5,6-Dichloro-1H-indol-2-yl)methyl)-1,8-diazaspiro[4.5]decane-8-carbonyl)-1H-pyrazol-3-yl)acetamide]
0 to 25	–	–	–	0 to 25	0 to 25	0 to 25	–	CS(=O)(=O)Nc1ccn(C(=O)N2CC3CN(Cc4cc(Cl)ccc4C(F)(F)F)CC3C2)n1 (stereo not shown) [Example 45, N-(1-(5-(5-Chloro-2-(trifluoromethyl)benzyl)octahydropyrrolo[3,4-c]pyrrole-2-carbonyl)-1H-pyrazol-3-yl)methanesulfonamide]
0 to 25	–	–	–	0 to 25	0 to 25	25 to 50	–	CS(=O)(=O)Nc1ccn(C(=O)N2CCC3(CCN(Cc4cc(Cl)ccc4C(F)(F)F)C3)CC2)n1 [Example 46, N-(1-(2-(5-Chloro-2-(trifluoromethyl)benzyl)-2,8-diazaspiro[4.5]decane-8-carbonyl)-1H-pyrazol-3-yl)methanesulfonamide]
0 to 25	–	–	–	0 to 25	0 to 25	–	25 to 50	CS(=O)(=O)Nc1ccn(C(=O)N2CC3CN(Cc4ccc(N5CCCC5)cc4C(F)(F)F)CC3C2)n1 (stereo not shown) [Example 47, N-(1-(5-(4-(Pyrrolidin-1-yl)-2-(trifluoromethyl)benzyl)octahydropyrrolo[3,4-c]pyrrole-2-carbonyl)-1H-pyrazol-3-yl)methanesulfonamide]
0 to 25	–	–	–	0 to 25	0 to 25	–	25 to 50	CS(=O)(=O)Nc1ccn(C(=O)N2CCC3(CCN(Cc4ccc(N5CCCC5)cc4C(F)(F)F)C3)CC2)n1 [Example 48, N-(1-(2-(4-(Pyrrolidin-1-yl)-2-(trifluoromethyl)benzyl)-2,8-diazaspiro[4.5]decane-8-carbonyl)-1H-pyrazol-3-yl)methanesulfonamide]
0 to 25	–	25 to 50	–	50 to 75	0 to 25	–	–	CC(=O)Nc1ccn(C(=O)N2CCC3(CCCN3Cc3cc4cc(C(=O)O)ccc4[nH]3)CC2)n1 [Example 49, 2-((8-(3-Acetamido-1H-pyrazole-1-carbonyl)-1,8-diazaspiro[4.5]decan-1-yl)methyl)-1H-indole-5-carboxylic acid]
0 to 25	–	50 to 75	–	50 to 75	> 75	–	–	CN(Cc1ccc(N2CCCC2)cc1C(F)(F)F)[C@H]1C[C@@H]2CN(C(=O)n3ccc(NS(C)(=O)=O)n3)C[C@@H]2C1 [Example 50, N-(1-((3aR,5r,6aS)-5-(Methyl(4-(pyrrolidin-1-yl)-2-(trifluoromethyl)benzyl)amino)octahydrocyclopenta[c]pyrrole-2-carbonyl)-1H-pyrazol-3-yl)methanesulfonamide]
> 75	0.1 to 1	> 75	< 0.1	> 75	> 75	–	–	CN(Cc1cc(Cl)ccc1C(F)(F)F)[C@H]1C[C@@H]2CN(C(=O)n3ccc(NS(C)(=O)=O)n3)C[C@@H]2C1 [Example 51, N-(1-((3aR,5r,6aS)-5-((5-Chloro-2-(trifluoromethyl)benzyl)(methyl)amino)octahydrocyclopenta[c]pyrrole-2-carbonyl)-1H-pyrazol-3-yl)methanesulfonamide]
0 to 25	1 to 10	> 75	< 0.1	> 75	0 to 25	–	–	CS(=O)(=O)Nc1ccn(C(=O)N2CCN(Cc3cc4ccc(C(F)(F)F)cc4s3)CC2)n1 [Example 52, N-(1-(4-((6-(Trifluoromethyl)benzo[b]thiophen-2-yl)methyl)piperazine-1-carbonyl)-1H-pyrazol-3-yl)methanesulfonamide]
0 to 25	–	–	–	0 to 25	0 to 25	> 75	–	CS(=O)(=O)Nc1ccn(C(=O)N2CCC3(CCCN3Cc3cc4ccc(C(F)(F)F)cc4s3)CC2)n1 [Example 53, N-(1-(1-((6-(Trifluoromethyl)benzo[b]thiophen-2-yl)methyl)-1,8-diazaspiro[4.5]decane-8-carbonyl)-1H-pyrazol-3-yl)methanesulfonamide]
0 to 25	–	> 75	–	> 75	0 to 25	–	–	CS(=O)(=O)Nc1ccn(C(=O)N2CCN(Cc3cc4ccccc4s3)CC2)n1 [Example 54, N-(1-(4-(Benzo[b]thiophen-2-ylmethyl)piperazine-1-carbonyl)-1H-pyrazol-3-yl)methanesulfonamide]
0 to 25	–	> 75	–	> 75	0 to 25	–	–	CS(=O)(=O)Nc1ccn(C(=O)N2CCN(Cc3cc4ccccc4[nH]3)CC2)n1 [Example 55, N-(1-(4-((1H-Indol-2-yl)methyl)piperazine-1-carbonyl)-1H-pyrazol-3-yl)methanesulfonamide]
